Test system: control human primary myoblasts
Assay: Expression microarray of primary myoblasts transduced with lentivirus carrying DUX4-fl, DUX4-s or GFP
Description: Primary human myoblasts were collected and cultured as previously described (Snider et al., 2010). Primary myoblasts were maintained at or below 70% confluency for proliferation. For differentiation, cells were allowed to reach 95-100% confluency in growth medium. Once confluency was reached, the cells were changed to differentiation medium (F10 media supplemented with 1% horse serum, 10 μg/mL insulin, and 10 μg/mL transferrin, penicillin/streptomycin) and maintained for 4 days. Human RD cells were grown in DMEM in 10% bovine calf serum (Hyclone) and penicillin/streptomycin. The primary myoblasts were transduced with lentivirus carrying DUX-fl, DUX4- or GFP (MOI=15).
Expression microarrays were performed on the transduced cells at 24 hours after transduction as follows. […] Samples were analyzed by Illumina Human Whole Genome microarrays. Probe intensities were corrected, normalized, and summarized by the Lumi package of Bioconductor (Du et al., 2008). Differentially expressed genes were identified by the LIMMA package of Bioconductor (Wettenhall and Smyth, 2004). Gene set enrichment analysis (GSEA) was performed using the Bioconductor GOstats package (Falcon and Gentleman, 2007).

DUX4-fl: full-length DUX4 protein (SEQ ID NO:110), expressed from lentiviral or pCS2 vectors or in vitro translated
fc of DENND5A (expression array) (Refseq NM_015213.2): −1.037
fc of FEM1B (expression array) (Refseq NM_015322.3): −0.5708
fc of PANX1 (expression array) (Refseq NM_015368.3): −0.114
fc of AASDHPPT (expression array) (Refseq NM_015423.2): −0.238
MTHFD1L fc (Refseq NM_015440.3): −1.173
C2orf32 fc (Refseq NM_015463.1): −1.1
PVRL3 expression fc (Refseq NM_015480.1): 2.223
NGDN expression fc (Refseq NM_015514.1): 2.058
fc of RRM2B (expression array) (Refseq NM_015713.3): −1.01
MBD2 expression fc (Refseq NM_015832.3): 1.818
fc of MBTPS2 (expression array) (Refseq NM_015884.1): −0.6539
ARS2 expression fc (Refseq NM_015908.4): 2.602
GSTK1 fc (Refseq NM_015917.1): −1.079
NOP58 expression fc (Refseq NM_015934.3): 1.887
CRLF3 expression fc (Refseq NM_015986.2): 1.912
fc of TTC15 (expression array) (Refseq NM_016030.5): −1.015
ISOC1 expression fc (Refseq NM_016048.1): 2.003
MED31 expression fc (Refseq NM_016060.2): 2.055
fc of TRPV2 (expression array) (Refseq NM_016113.3): −1.02
CERCAM fc (Refseq NM_016174.3): −1.121
DBR1 expression fc (Refseq NM_016216.2): 3.379
POLR3K expression fc (Refseq NM_016310.2): 1.95
HERC5 expression fc (Refseq NM_016323.2, cultured human skeletal muscle): −3.202
fc of CENPF (expression array) (Refseq NM_016343.3): −0.4122
CWC15 expression fc (Refseq NM_016403.3): 2.643
fc of TMEM9 (expression array) (Refseq NM_016456.2): −1.008
RAB6B expression fc (Refseq NM_016577.3): 3.17
SLC15A3 expression fc (Refseq NM_016582.1, cultured human skeletal muscle): −3.754
FKBP11 fc (Refseq NM_016594.1): −1.125
ARMCX1 fc (Refseq NM_016608.1): −1.116
C8orf55 fc (Refseq NM_016647.2): −1.082
HOXC13 fc (Refseq NM_017410.2): −1.107
USP18 expression fc (Refseq NM_017414.3, cultured human skeletal muscle): −2.497
PARP14 expression fc (Refseq NM_017554.1, cultured human skeletal muscle): −2.825
fc of SLC43A3 (expression array) (Refseq NM_017611.2): −1.026
NOTCH1 fc (Refseq NM_017617.3): −1.08
KIF21A expression fc (Refseq NM_017641.2): 1.837
fc of AHI1 (expression array) (Refseq NM_017651.3): −0.5927
SAMD9 expression fc (Refseq NM_017654.2, cultured human skeletal muscle): −2.863
FAM46C expression fc (Refseq NM_017709.3): 2.389
RETSAT expression fc (Refseq NM_017750.2, cultured human skeletal muscle): −1.929
LYAR expression fc (Refseq NM_017816.1): 1.977
ZSCAN2 expression fc (Refseq NM_017894.4): 2.151
HERC6 expression fc (Refseq NM_017912.3, cultured human skeletal muscle): −3.728
PID1 fc (Refseq NM_017933.3): −1.128
ZNHIT6 expression fc (Refseq NM_017953.2): 3.519
C14orf102 expression fc (Refseq NM_017970.2): 2.529
fc of WIPI1 (expression array) (Refseq NM_017983.4): −1.022
RNF31 fc (Refseq NM_017999.4): −1.08
FRMD4A fc (Refseq NM_018027.3): −1.164
FAM90A1 expression fc (Refseq NM_018088.3): 3.636
fc of RBM23 (expression array) (Refseq NM_018107.4): −1.022
PNPO fc (Refseq NM_018129.2): −1.13
SEC61A2 expression fc (Refseq NM_018144.2): 1.837
NADSYN1 fc (Refseq NM_018161.4): −1.086
TMEM140 expression fc (Refseq NM_018295.2, cultured human skeletal muscle): −2.946
BRIX1 expression fc (Refseq NM_018321.3): 1.886
DRAM1 fc (Refseq NM_018370.2): −1.087
LSG1 expression fc (Refseq NM_018385.1): 1.994
TBC1D2 fc (Refseq NM_018421.2): −1.075
RRN3 expression fc (Refseq NM_018427.3): 2.068
ZNF302 fc (Refseq NM_018443.2): −1.164
fc of GLT8D1 (expression array) (Refseq NM_018446.2): −1.021
BEX1 fc (Refseq NM_018476.3): −1.097
SLC35E3 fc (Refseq NM_018656.2): −1.132
DEFB103B expression fc (Refseq NM_018661.3): 2.499
fc of SULF2 (expression array) (Refseq NM_018837.2): −1.048
PDE7B fc (Refseq NM_018945.3): −1.116
NANS expression fc (Refseq NM_018946.2): 1.872
POLR1B expression fc (Refseq NM_019014.3): 1.904
CCNJ expression fc (Refseq NM_019084.2): 2.695
fc of HOXA5 (expression array) (Refseq NM_019102.2): −1.005
PNO1 expression fc (Refseq NM_020143.2): 2.151
KTELC1 fc (Refseq NM_020231.3): −1.073
C1orf63 expression fc (Refseq NM_020317.3): 2.19
ZMIZ1 fc (Refseq NM_020338.2): −1.165
TRIM49 expression fc (Refseq NM_020358.2): 6.551
LYRM1 fc (Refseq NM_020424.2): −1.126
SLC44A2 fc (Refseq NM_020428.2): −1.158
PCBP3 fc (Refseq NM_020528.1): −1.122
NFKBIA expression fc (Refseq NM_020529.1, cultured human skeletal muscle): −3.004
fc of RCN3 (expression array) (Refseq NM_020650.2): −1.062
PELI1 expression fc (Refseq NM_020651.2): 2.886
fc of FAM62B (expression array) (Refseq NM_020728.1): −0.7938
HECW2 fc (Refseq NM_020760.1): −1.167
ZNF319 fc (Refseq NM_020807.1): −1.119
OSBPL8 expression fc (Refseq NM_020841.4): 1.95
USP29 expression fc (Refseq NM_020903.2): 2.597
fc of RNF213 (expression array) (Refseq NM_020914.3): −1.024
fc of FAM160B1 (expression array) (Refseq NM_020940.3): −1.051
fc of IGDCC4 (expression array) (Refseq NM_020962.1): −1.054
RFPL1 expression fc (Refseq NM_021026.2): 6.264
IFITM3 expression fc (Refseq NM_021034.2, cultured human skeletal muscle): −1.949
NEFH expression fc (Refseq NM_021076.2): 1.936
fc of SLC8A1 (expression array) (Refseq NM_021097.2): −0.4596
PSAT1 fc (Refseq NM_021154.3): −1.076
RAB40C fc (Refseq NM_021168.2): −1.168
fc of SLC30A1 (expression array) (Refseq NM_021194.2): −0.3462
CTDSP1 fc (Refseq NM_021198.1): −1.122
ARHGAP22 fc (Refseq NM_021226.2): −1.084
fc of NTN4 (expression array) (Refseq NM_021229.3): −1.022
PELI2 expression fc (Refseq NM_021255.2): 2.782
PLEKHA2 fc (Refseq NM_021623.1): −1.077
AVPI1 expression fc (Refseq NM_021732.1): 2.022
fc of FAM3A (expression array) (Refseq NM_021806.1): −1.022
APOBEC3G expression fc (Refseq NM_021822.1, cultured human skeletal muscle): −2.012
fc of C14orf93 (expression array) (Refseq NM_021944.1): −1.063
HSPA2 expression fc (Refseq NM_021979.3): 3.67
CXCL16 fc (Refseq NM_022059.1): −1.09
NOD2 fc (Refseq NM_022162.1): −1.135
IFIH1 expression fc (Refseq NM_022168.2, cultured human skeletal muscle): −3.705
HS1BP3 fc (Refseq NM_022460.3): −1.078
C14orf173 fc (Refseq NM_022489.2): −1.167
FEZ1 fc (Refseq NM_022549.2): −1.073
HIPK2 fc (Refseq NM_022740.2): −1.173
fc of MOSC1 (expression array) (Refseq NM_022746.2): −1.034
PARP12 expression fc (Refseq NM_022750.2, cultured human skeletal muscle): −3.165
CRTC3 fc (Refseq NM_022769.3): −1.138
FAM129B fc (Refseq NM_022833.2): −1.126
IFI6 expression fc (Refseq NM_022872.2, cultured human skeletal muscle): −4.24
FGFR3 expression fc (Refseq NM_022965.1): 3.112
PRAMEF1 expression fc (Refseq NM_023013.1): 8.072
PRAMEF2 expression fc (Refseq NM_023014.1): 6.439
C8orf33 expression fc (Refseq NM_023080.1): 2.251
GRAMD3 fc (Refseq NM_023927.1): −1.115
NEUROG2 expression fc (Refseq NM_024019.2): 3.857
NUP37 fc (Refseq NM_024057.2): −1.075
PRRG4 expression fc (Refseq NM_024081.4): 2.369
TRIM48 expression fc (Refseq NM_024114.2): 7.88
DHX58 expression fc (Refseq NM_024119.2, cultured human skeletal muscle): −2.836
PRKAG2 fc (Refseq NM_024429.1): −1.099
fc of FAM65A (expression array) (Refseq NM_024519.2): −1.053
fc of ZC3HAV1 (expression array) (Refseq NM_024625.3): −0.8233
YRDC expression fc (Refseq NM_024640.3): 2.601
NPEPL1 fc (Refseq NM_024663.3): −1.113
SNIP1 expression fc (Refseq NM_024700.2): 2.104
fc of FAM57A (expression array) (Refseq NM_024792.1): −1.045
C13orf34 expression fc (Refseq NM_024808.2): 2.492
fc of NUDT18 (expression array) (Refseq NM_024815.3): −1.034
fc of ZNF672 (expression array) (Refseq NM_024836.1): −1.034
C14orf159 expression fc (Refseq NM_024952.5, cultured human skeletal muscle): −2.07
NRSN2 fc (Refseq NM_024958.1): −1.091
SLC24A6 fc (Refseq NM_024959.2): −1.099
CSRNP3 expression fc (Refseq NM_024969.2): 2.496
fc of ULBP1 (expression array) (Refseq NM_025218.2): −1.025
C6orf148 expression fc (Refseq NM_030568.2): 6.759
KLHL15 expression fc (Refseq NM_030624.1): 3.373
fc of ZBP1 (expression array) (Refseq NM_030776.1): −0.3281
SLC2A10 fc (Refseq NM_030777.3): −1.119
SYNC1 fc (Refseq NM_030786.1): −1.127
PDRG1 expression fc (Refseq NM_030815.2): 1.783
UNC93B1 expression fc (Refseq NM_030930.2, cultured human skeletal muscle): −1.961
PPP1R14C expression fc (Refseq NM_030949.2): 3.049
TRIM56 fc (Refseq NM_030961.1): −1.14
fc of RNF146 (expression array) (Refseq NM_030963.2): −1.02
ADPGK expression fc (Refseq NM_031284.3): 2.233
C11orf68 fc (Refseq NM_031450.2): −1.142
FAM107B expression fc (Refseq NM_031453.2): 2.529
PARP9 expression fc (Refseq NM_031458.1, cultured human skeletal muscle): −2.098
IFI27L2 fc (Refseq NM_032036.2): −1.137
SFRS2B expression fc (Refseq NM_032102.2): 4.215
